This note sets out measurements from ChEMBL document CHEMBL1144267, “New conformationally locked bicyclic N,O-nucleoside analogues of antiviral drugs” (2005).

Type in all cases: functional
Test [1] has as its system Human alphaherpesvirus 1. Nature of the test: Antiviral efficacy in Vero cells infected with HSV-1 at concentration of 400 uM.
In test [2] the test system is Human alphaherpesvirus 1. Nature of the test: Antiviral efficacy in Vero cells infected with HSV-1 at concentration of 200 uM.
Test [3] concerns Human alphaherpesvirus 1. Briefly: Antiviral efficacy in Vero cells infected with HSV-1 at concentration of 100 uM.
Test [4] has as its system Human alphaherpesvirus 1. Briefly: Antiviral efficacy in Vero cells infected with HSV-1 at concentration of 800 uM.

As to `Cc1cn(C2CC3CCCN3O2)c(=O)[nH]c1=O` (configuration not stated), the Cells killed in the test with Human alphaherpesvirus 1 [1] is reported as -12%; in the test with Human alphaherpesvirus 1 [2], -10%; in the test on Human alphaherpesvirus 1 [3], -5%; in the test with Human alphaherpesvirus 1 [4] it was -55%.
The matching figures for `O=c1ccn(C2CC3CCCN3O2)c(=O)[nH]1` (configuration not stated): -70%, -55%, -41% and -83%.
With `Nc1ccn(C2CC3CCCN3O2)c(=O)n1` (configuration not stated), the Cells killed in the test with Human alphaherpesvirus 1 [1] was -6%; in the test on Human alphaherpesvirus 1 [2] it was -3%; with Human alphaherpesvirus 1 [3] it was -3%; in the test with Human alphaherpesvirus 1 [4], -67%.
